Assay [1] concerns footshock-induced ultrasonic vocalisation. Kind of assay: Footshock-induced ultrasonic vocalisation test in adult rats. It is filed as in vivo, rat. Particulars: male Wistar rats, drug given 30 min before test, four 1.0 mA footshocks. The source says:
The Footshock-induced Vocalisation Test in Adult Rats. The footshock-induced vocalisation test in adult rats (described in detail in Sánchez C., Effect of serotonergic drugs on footshock-induced ultrasonic vocalization in adult male rats. Behav. Pharmacol. 1993; 4:267-277) is a test for anxiolytic and anti-panic effects. Male rats (Wistar WU, Charles River, Germany), weighing 150-175 g at the beginning of the study were used. Briefly, test cages (22 cm×22 cm×22 cm) made of grey Perspex and equipped with a metal grid floor were used. Footshocks were delivered from a two pole shocker and a microphone sensitive to ultrasounds in the range of 20-30 kHz was placed in the centre of the lid of the test cage. The ultrasounds were sent from the microphone to a preamplifier and converted from AC signals to DC signals in a signal rectifier. The accumulated time, in which the voltage of the rectified signal was larger than the voltage of a previously determined threshold level, was recorded. Twenty-four hours before the first test session the animals were primed. A rat was placed in each test cage and received, immediately thereafter, four 1.0 mA inescapable footshocks each of a duration of 10 sec and with an intershock interval of 5 sec. The animals were left in the test cage for 6 min after the last shock. […] The total time spent on vocalisation was recorded. […]

For assay [2], the system named is schedule-induced polydipsia (water intake). Kind of assay: Schedule-induced polydipsia in rats. It is filed as in vivo, rat. The settings on record: male wistar rats, oral 60 min prior to testing; Citalopram 40 mg/kg, Lu 26-054 20 mg/kg. The source says:
Schedule-induced Polydipsia Food deprived rats exposed to a procedure in which food is delivered intermittently will drink large amounts of water if given the opportunity to do so. This behavioural phenomenon is called schedule-induced polydipsia and can be considered as an excessive expression of a normal behaviour. Schedule-induced polydipsia is regarded as a model of obsessive-compulsive disorder (Woods et al. 1993). Male wistar rats (Møllegard) housed in pairs and kept on a food-restricted diet (80% of normal body weight) for 2 weeks before the start of testing and throughout the duration of testing. To induce polydipsia rats were placed in test chambers where a pellet dispenser automatically dispensed one 60 mg food pellet every 60 seconds. Water was available at all times in the test chamber. Rats were tested 4-5 times per week, after 3-4 weeks training 70% of the rats were drinking >10 ml per 30 min test session. Once the rats had attained a steady drinking level compounds could be tested. Citalopram (40 mg/kg) or Lu 26-054 (20 mg/kg) were administered orally 60 min prior to testing and at 10:00 on the non-test days. The water intake was presented as a percentage of the pre-dosing (baseline) level.

Assay [3] relates to mice black and white box behaviour. Kind of assay: Black and White Box Test in mice. It is filed as in vivo, mouse. The settings on record: male mice, pretreatment time 30 min, test duration 5 min. As for the experimental part: Black and White Box Test This is a test for anxiolytic effects. The test model is further described in Sánchez, C. (1995) Pharmacol. Toxicol. 77, 71-78. Male mice (Lundbeck strain, Charles River, Germany) weighing 30-35 g were housed in groups of 4 in macrolon cages type II under a reversed 12 h day/night cycle (lights off 7 p.m.). The mice were adapted to the reversed light/dark cycle for at least 3 weeks prior to testing. The room temperature (21±2° C.), relative humidity (55±5%), and air exchange (16 times per h) were automatically controlled. The animals had free access to commercial food pellets and water. The test box used was designed as described by Sánchez (1995) (supra). […] The lower row of photocells (2 cm above cage floor) detected horizontal locomotor activity (crossing, entries, and time in each compartment), whereas the upper row of photocells (5 cm above cage floor) detected rearing activity. The accumulated data for 1 min intervals were recorded from 4 test boxed simultaneously and stored in a Paradox data base. […] The test duration was 5 min and the number of rears and line crossings between squares in both the black and the white compartment, number of entries into the black compartment and time spent in the white compartment were assessed.

With `CN(C)CCCC1(c2ccc(F)cc2)OCc2cc(C#N)ccc21` (racemic) [citalopram, reference compound], in assay [1], the “maximum effect, inhibition of vocalisation” value is reported as 60-70%. For the same molecule, the “water intake (percentage of pre-dosing baseline level)” value in assay [2] was “without effect”.

For `CN(C)CCC[C@@]1(c2ccc(F)cc2)OCc2cc(C#N)ccc21` [escitalopram, (S)-1-[3-(dimethyl-amino)propyl]-1-(4-fluorophenyl)-1,3-dihydro-5-isobenzofurancarbonitrile], the “inhibition of vocalisation” value in assay [1] is on record as “able to inhibit vocalisation completely”. For the same molecule, in assay [3], the “effect in black and white box model” value is “prominent effects”. The “water intake (percentage of pre-dosing baseline level)” value in assay [2] is on record as “significant reduction in water intake”.
